Source: patent publication EP0745595A1, “3-(3-Aryloxyphenyl)-1-(substituted methyl)-s-triazine-2,4,6-oxo or thiotrione herbicidal agents” (American Cyanamid Company, priority 1995, dated 1996)

Key:
Format in all cases: in vivo
[1] = system: CYPERUS SEROTINUS, ROTTB.; assay: Preemergence weed control under flooded paddy conditions, CYPSE (Flatsedge); conditions: 0.500 kg/ha, preemergence, 3-4 weeks after treatment
How it was run: (§1)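 Visual 0-9 rating against untreated control, covering stand, vigor, malformation, size and chlorosis, scored three to four weeks post-treatment in a greenhouse. Application was into 1.5-3 cm flood water over silt loam sown at 0.5 cm. The 50/50 v/v aqueous/acetone doses were about 0.5, 0.25, 0.125 and 0.063 kg/ha.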

[2] = system: ECHINOCHLOA CRUS-GALLI, (L) BEAU; assay: Preemergence herbicidal evaluation, ECHCG (Barnyardgrass); conditions: for ECHCG herbicidal rating: rated four to five weeks after treatment; for ECHCG rating: four to five weeks after treatment
Description: (§2) Results of herbicide evaluation are expressed on a rating scale (0-9). The scale is based upon a visual observation of plant stand, vigor, malformation, size, chlorosis and overall plant appearance as compared with a control.
(§3) The preemergence herbicidal activity of the test compounds of the present invention is exemplified by the following tests in which the seeds of a variety of monocotyledonous and dicotyledonous plants are separately mixed with potting soil and planted on top of approximately one inch of soil in separate pint cups. […] The treated cups are then placed on greenhouse benches, watered and cared for in accordance with conventional greenhouse procedures. From four to five weeks after treatment, the tests are terminated and each cup is examined and rated according to the rating system provided in Example 40.
(§4) The compounds evaluated are reported by compound number given in Example 40.

[3] = system: ECHINOCHLOA ORYZOIDES (ARD.)FRITSCH; assay: Preemergence weed control under flooded paddy conditions, ECHORC (Watergrass (Calif.)); conditions: for ECHORC herbicidal rating: preemergence weeds, rated three to four weeks after treatment
Procedure: as §2
(§5) Preemergence herbicidal activity under flooded paddy conditions is determined as follows: plant seeds or propagating organs are planted in the top 0.5 cm of silt loam soil in 32 oz. plastic containers with a diameter of 10.5 cm and no drainage holes. Water is added to these containers and maintained at 1.5 to 3 cm above the soil surface for the duration of the experiment. […] The treated containers are placed on greenhouse benches and cared for according to normal greenhouse procedures.- Three to four weeks after treatment the test is terminated and each container is examined and herbicidal effect rated according to the rating system provided in Example 40. The compounds evaluated are reported by compound number given in Example 40.
(§6) Plant species employed in this example are reported by header abbreviation, common name and scientific name.

SAGITTARIA PYGMAEA, L. = assay: Preemergence weed control under flooded paddy conditions, SAGPY (Arrowhead (Pygmaea)); conditions: for SAGPY herbicidal rating: preemergence weeds, rated three to four weeks after treatment
How it was run: as §1

[4] = system: ORYZA SATIVA, L. TEBONNET; assay: Rice tolerance to post-transplant applications under flooded paddy conditions, ORYSAT (Rice, Tebonnet); conditions: post-transplant rice; for ORYSAT herbicidal rating (rice tolerance): rated three to four weeks after treatment;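 as to ORYSAT herbicidal rating (rice tolerance): applied to flooded soil surface three days after transplanting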
How it was run: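 Rated on a visual 0–9 scale against untreated plants 3–4 weeks after application, rice (cv. Tebonnet) tolerance was tested by applying compounds (approx. 0.5–0.063 kg/ha, acetone/water 50/50) to flooded soil three days post-transplant, water kept 1.5–3 cm deep.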

CYPERUS IRIA = assay: Preemergence weed control under flooded paddy conditions, CYPIR (Rice Flatsedge); conditions: 0.500 kg/ha, preemergence, 3-4 weeks after treatment
Procedure: as §2, §5, §6

[5] = system: GLYCINE MAX(L) MERR. CV. WILLIAMS; assay: Preemergence herbicidal evaluation, GLXMAW (Soybean, Williams); conditions: for GLXMAW herbicidal rating: rated four to five weeks after treatment; for GLXMAW rating: four to five weeks after treatment
Description: as §2, §3, §4

[…], PRESL. = Preemergence weed control under flooded paddy conditions, MOOVA (Monochoria); conditions: 0.500 kg/ha, preemergence, 3-4 weeks after treatment
How it was run: as §1

IPOMOEA SPP. = assay: Postemergence herbicidal evaluation, IPOSS (Morningglory spp.); conditions: rated four to five weeks after treatment, averaged
How it was run: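 In this greenhouse postemergence herbicide test on Ipomoea spp. (morningglory), compounds in 50/50 acetone/water with 0.5% TWEEN®20 were sprayed at 40 psi onto seedlings about two weeks old grown in jiffy flats. After four to five weeks, injury was scored on a 0-9 scale covering stand, vigor, malformation, size, chlorosis and overall appearance versus control, with repeat tests averaged.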

[6] = system: AMBROSIA ARTEMISIIFOLIA, L.; assay: Postemergence herbicidal evaluation, AMBEL (Ragweed, Common); conditions: rated four to five weeks after treatment, averaged
How it was run: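 Postemergence herbicidal activity on AMBEL (common ragweed) was assessed on two-week-old seedlings grown in jiffy flats. Treatment solutions of 50/50 acetone/water with 0.5% TWEEN®20 surfactant were sprayed at 40 psi. After four to five weeks in the greenhouse, plants were scored 0-9 against a control for stand, vigor, malformation, size, chlorosis and overall appearance, with multiple tests averaged.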

ZEA MAYS L. = assay: Preemergence herbicidal evaluation, ZEAMX (Corn, Field); conditions: four to five weeks after treatment
Description: as §2, §3, §4

[7] = system: SETARIA VIRIDIS, (L) BEAU; assay: Postemergence herbicidal evaluation, SETVI (Foxtail, Green); conditions: rated four to five weeks after treatment, averaged
Procedure: In the tests, seedling plants are grown in jiffy flats for about two weeks. The test compounds are dispersed in 50/50 acetone/water mixtures containing 0.5% TWEEN®20, a polyoxyethylene sorbitan monolaurate surfactant of Atlas Chemical Industries, in sufficient quantities to provide the equivalent of about 0.125 kg to 0.500 kg per hectare of active compound when applied to the plants through a spray nozzle operating at 40 psi for a predetermined time. After spraying, the plants are placed on greenhouse benches and are cared for in the usual manner, commensurate with conventional greenhouse practices. From four to five weeks after treatment, the seedling plants are examined and rated according to the rating system set forth below. Where more than one test is involved for a given compound, the data are averaged.
Plant species employed in these evaluations are reported by header abbreviation, common name and scientific name.
as §2

CASSIA OBTUSIFOLIA, L. [8] = assay: Preemergence herbicidal evaluation, CASOB (Sicklepod); conditions: four to five weeks after treatment
Description: as §2, §3, §4

CHENOPODIUM ALBUM, L. [9] = assay: Preemergence herbicidal evaluation, CHEAL (Lambsquarters, Common); conditions: four to five weeks after treatment
How it was run: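 Seeds mixed with potting soil were planted on about one inch of soil in cups, then sprayed with aqueous acetone solution of test compound at about 0.125 to 0.50 kg per hectare. Plants grown under greenhouse conditions; visual rating on a 0-9 scale versus untreated control at 4-5 weeks.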

[10] = system: ABUTILON THEOPHRASTI, MEDIC.; assay: Postemergence herbicidal evaluation, ABUTH (Velvetleaf); conditions: rated four to five weeks after treatment, averaged
How it was run: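 This postemergence herbicide test used two-week-old velvetleaf seedlings grown in jiffy flats. Each compound was sprayed at 40 psi as a dispersion in 50/50 acetone/water with 0.5% TWEEN®20 surfactant. Plants then received routine greenhouse care. After four to five weeks, injury was scored visually on a 0-9 scale against a control, and replicate tests were averaged.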

CHENOPODIUM ALBUM, L. [11] = assay: Postemergence herbicidal evaluation, CHEAL (Lambsquarters, Common); conditions: rated four to five weeks after treatment, averaged
How it was run: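 Postemergence herbicidal activity on Chenopodium album was tested by spraying two-week-old seedlings grown in jiffy flats with compound in acetone/water (50/50) plus 0.5% TWEEN®20, using a 40 psi nozzle. Four to five weeks after treatment, stand, vigor, malformation, size, chlorosis and overall appearance were scored 0-9 relative to controls, with repeat tests averaged.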

CASSIA OBTUSIFOLIA, L. [12] = assay: Postemergence herbicidal evaluation, CASOB (Sicklepod); conditions: rated four to five weeks after treatment, averaged
How it was run: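 Each value is a 0–9 visual rating of plant appearance compared with control, recorded 4–5 weeks after a 0.125–0.500 kg/ha spray, with multiple tests averaged.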

[13] = 0.500 kg/ha, preemergence, 3-4 weeks after treatment

COC(=O)Cn1c(=O)n(C)c(=O)n(-c2cc(Oc3cc(OC)c(Cl)cc3Cl)ccc2[N+](=O)[O-])c1=O [Compound 29, Methyl 3-[5-(2,4-dichloro-5-methoxyphenoxy)-2-nitrophenyl]tetrahydro-5-methyl-2,4,6-trioxo-s-triazine-1(2H)-acetate]
Herbicidal effect rating, CYPSE [1]: 0.0
ECHCG herbicidal rating ([2]; Rate 0.125 kg/ha): 0.0
ECHCG herbicidal rating ([2]; Rate 0.250 kg/ha): 0.0
ECHCG herbicidal rating ([2]; Rate 0.500 kg/ha): 0.0
Herbicidal effect rating, ECHORC [3, 13]: 0.0
Herbicidal effect rating, SAGPY (SAGITTARIA PYGMAEA, L.; [13]): 0.0
Herbicidal effect rating, ORYSAT ([4]; 0.500 kg/ha, 3-4 weeks after treatment): 0.0
Herbicidal effect rating, CYPIR (CYPERUS IRIA): 0.0
GLXMAW herbicidal rating ([5]; Rate 0.125 kg/ha): 0.0
GLXMAW herbicidal rating ([5]; Rate 0.250 kg/ha): 0.0
GLXMAW herbicidal rating ([5]; Rate 0.500 kg/ha): 0.0
Herbicidal effect rating, MOOVA ([…], PRESL.): 0.0

CCOC(=O)Cn1c(=O)n(C)c(=O)n(-c2cc(Oc3c(F)cc(C(F)(F)F)cc3Cl)ccc2C#N)c1=O [Compound 11, Ethyl 3-{5-[(2-chloro-α,α,α,6-tetrafluoro-p-tolyl)oxy]-2-cyanophenyl}tetrahydro-5-methyl-2,4,6-trioxo-s-triazine-1(2H)-acetate]
IPOSS, herbicide rating (0-9) (IPOMOEA SPP.; Rate 0.125 kg/ha): 9.0
IPOSS, herbicide rating (0-9) (IPOMOEA SPP.; Rate 0.250 kg/ha): 9.0
IPOSS, herbicide rating (0-9) (IPOMOEA SPP.; Rate 0.500 kg/ha): 9.0
ECHCG rating ([2]; Rate 0.125 kg/ha): 0.0
ECHCG rating ([2]; Rate 0.250 kg/ha): 0.0
ECHCG rating ([2]; Rate 0.500 kg/ha): 0.0
AMBEL, herbicide rating (0-9) ([6]; Rate 0.125 kg/ha): 9.0
AMBEL, herbicide rating (0-9) ([6]; Rate 0.250 kg/ha): 9.0
AMBEL, herbicide rating (0-9) ([6]; Rate 0.500 kg/ha): 9.0
ZEAMX rating (ZEA MAYS L.; Rate 0.125 kg/ha): 0.0
ZEAMX rating (ZEA MAYS L.; Rate 0.250 kg/ha): 0.0
ZEAMX rating (ZEA MAYS L.; Rate 0.500 kg/ha): 0.0
ECHORC herbicidal rating ([3]; Rate 0.063 kg/ha): 9.0
ECHORC herbicidal rating ([3]; Rate 0.125 kg/ha): 9.0
ECHORC herbicidal rating ([3]; Rate 0.250 kg/ha): 9.0
ECHORC herbicidal rating ([3]; Rate 0.500 kg/ha): 9.0
SETVI, herbicide rating (0-9) ([7]; Rate 0.125 kg/ha): 9.0
SETVI, herbicide rating (0-9) ([7]; Rate 0.250 kg/ha): 9.0
SETVI, herbicide rating (0-9) ([7]; Rate 0.500 kg/ha): 9.0
CASOB rating (CASSIA OBTUSIFOLIA, L. [8]; Rate 0.125 kg/ha): 0.0
CASOB rating (CASSIA OBTUSIFOLIA, L. [8]; Rate 0.250 kg/ha): 0.0
CASOB rating (CASSIA OBTUSIFOLIA, L. [8]; Rate 0.500 kg/ha): 0.0
SAGPY herbicidal rating (SAGITTARIA PYGMAEA, L.; Rate 0.063 kg/ha): 0.0
SAGPY herbicidal rating (SAGITTARIA PYGMAEA, L.; Rate 0.125 kg/ha): 0.0
SAGPY herbicidal rating (SAGITTARIA PYGMAEA, L.; Rate 0.250 kg/ha): 0.0
SAGPY herbicidal rating (SAGITTARIA PYGMAEA, L.; Rate 0.500 kg/ha): 0.0
ORYSAT herbicidal rating (rice tolerance) ([4]; Rate 0.063 kg/ha): 0.0
ORYSAT herbicidal rating (rice tolerance) ([4]; Rate 0.125 kg/ha): 0.0
ORYSAT herbicidal rating (rice tolerance) ([4]; Rate 0.250 kg/ha): 1.0
ORYSAT herbicidal rating (rice tolerance) ([4]; Rate 0.500 kg/ha): 1.0
CHEAL rating (CHENOPODIUM ALBUM, L. [9]; Rate 0.125 kg/ha): 9.0
CHEAL rating (CHENOPODIUM ALBUM, L. [9]; Rate 0.250 kg/ha): 9.0
CHEAL rating (CHENOPODIUM ALBUM, L. [9]; Rate 0.500 kg/ha): 9.0
GLXMAW rating ([5]; Rate 0.125 kg/ha): 0.0
GLXMAW rating ([5]; Rate 0.250 kg/ha): 0.0
GLXMAW rating ([5]; Rate 0.500 kg/ha): 0.0
ABUTH, herbicide rating (0-9) ([10]; Rate 0.125 kg/ha): 9.0
ABUTH, herbicide rating (0-9) ([10]; Rate 0.250 kg/ha): 9.0
ABUTH, herbicide rating (0-9) ([10]; Rate 0.500 kg/ha): 9.0
CHEAL, herbicide rating (0-9) (CHENOPODIUM ALBUM, L. [11]; Rate 0.125 kg/ha): 9.0
CHEAL, herbicide rating (0-9) (CHENOPODIUM ALBUM, L. [11]; Rate 0.250 kg/ha): 9.0
CHEAL, herbicide rating (0-9) (CHENOPODIUM ALBUM, L. [11]; Rate 0.500 kg/ha): 9.0
CASOB, herbicide rating (0-9) (CASSIA OBTUSIFOLIA, L. [12]; Rate 0.125 kg/ha): 9.0
CASOB, herbicide rating (0-9) (CASSIA OBTUSIFOLIA, L. [12]; Rate 0.250 kg/ha): 9.0
CASOB, herbicide rating (0-9) (CASSIA OBTUSIFOLIA, L. [12]; Rate 0.500 kg/ha): 9.0
